Experiments:
Assay type in all cases: in vivo
corn = experiment: Example 23, Procedure II: Antidote Nos. 15 and 17-21 against Herbicide No. 1, 13 days after application; conditions: for % Inhibition Corn: 13 days after application
Method: (§1) Containers were filled and compacted with a fumigated silt loam top soil to a depth of about 1.3 cm from the top of the container. A first container was designated as an untreated control, a second container was designated as a herbicide control, and a third container was designated as a herbicide + antidote test container. Each of the containers was seeded with a crop species. A measured amount of herbicide dispersed or dissolved in acetone was applied to a measured quantity of soil. To this same quantity of soil treated with herbicide, there was added a measured amount of antidote dispersed or dissolved in acetone. The quantity of soil treated with the herbicide and antidote was thoroughly mixed to incorporate the herbicide and antidote in the soil uniformly. The seed bed in the third container of soil was covered with the soil treated with the herbicide and antidote and the container was leveled. For each test series, the seed beds of the first and second containers were likewise covered by soil layers. the cover layer of the first container was not treated with herbicide or antidote.
(§2) The containers were then placed on a bench in a greenhouse and sub-irrigated as required for the duration of the test. […] Plant response is measured in terms of percent injury. Antidote efficacy is indicated as the difference in plant injury by the herbicide(s) without the antidote and with the antidote.
(§3) This procedure is the same as Procedure I, but modified in the manner that after incorporation of the chemicals (herbicide and antidote) the containers with the covered seedbed were treated with an initial overhead irrigation equivalent to 0.6 cm rainfall, then subsequently sub-irrigated as required on greenhouse benches.
(§4) In other greenhouse tests, using Procedure II described above, the safening efficacy of Antidote Nos. 15 and 17-21 was evaluated against Herbicide No. 1 in corn in the presence of Giant foxtail (Setaria fabergi) and Velvetleaf (Abutilon theophrasti) as representative annual monocotyledonous and dicotyledonous weeds, respectively.
(§5) Test results are shown in Tables 23A and 23B wherein the indicated plant inhibition represents the average of duplicate replications, with observations being made thirteen (13) days after application of the chemicals. Giant foxtail and Velvetleaf are represented by the symbols "GFT" and "VL", respectively. The data in Table 23A show the test results using the antidotes at 2.24 kg/ha, whereas in Table 23B, the antidotal rate was reduced to 0.56 kg/ha.

[1] = test system: barnyardgrass (Echinochloa crusgalli); experiment: Example 21, Procedure II: Herbicide No. 1 + SUTAN PLUS (butylate + antidote) with antidotes
Method: as §1, §2, §3
(§6) In the series of greenhouse tests described below, for routine screening purposes the herbicide/antidote compositions were tested in crop/weed combinations involving corn as the crop and either or both of the weeds barnyardgrass (Echinochloa crusgalli), a monocotyledonous weed, and velvetleaf (Abutilon theophrasti), a dicotyledonous weed. In the tables below, these weeds are indicated by the symbols "BYG" and "VL", respectively.
(§7) In this example, tests were conducted as in the preceding Examples 18-20, except here the co-herbicidal component was SUTAN® PLUS, a commercial product comprising as the active herbicidal ingredient the compound butylate (Herbicide No. 10) and an antidote […] (Antidote No. 1). Again, the antidotal compounds herein were Nos. 1, 2, 7, 13 and 15. Procedure II was used.

[2] = test system: velvetleaf (Abutilon theophrasti); experiment: as above
Method: as §1, §2, §3, §6, §7

[3] = test system: Giant foxtail (Setaria fabergi); experiment: Example 23, Procedure II: Antidote Nos. 15 and 17-21 against Herbicide No. 1, 13 days after application
Method: as §1, §2, §3, §4, §5

[4] = test system: velvetleaf (Abutilon theophrasti); experiment: as above
Method: as §1, §2, §3, §4, §5

[5] = Herbicide No.1 0.56 kg/ha + SUTAN + 8.96 kg/ha, no added antidote
[6] = Herbicide No.1 0.56 kg/ha alone
[7] = Herbicide No.1 1.12 kg/ha + SUTAN + 8.96 kg/ha, no added antidote
[8] = Herbicide No.1 1.12 kg/ha alone
[9] = Table 23A, Herb. No. 1 0.14 Kg/Ha + antidote 2.24 Kg/ha
[10] = Table 23A, Herb. No. 1 0.28 Kg/Ha + antidote 2.24 Kg/ha
[11] = Table 23A, Herb. No. 1 0.56 Kg/Ha + antidote 2.24 Kg/ha
[12] = Table 23A, Herb. No. 1 1.12 Kg/Ha + antidote 2.24 Kg/ha
[13] = Table 23B, Herb. No. 1 0.14 Kg/Ha + antidote 0.56 Kg/ha
[14] = Table 23B, Herb. No. 1 0.28 Kg/Ha + antidote 0.56 Kg/ha
[15] = Table 23B, Herb. No. 1 0.56 Kg/Ha + antidote 0.56 Kg/ha
[16] = Table 23B, Herb. No. 1 1.12 Kg/Ha + antidote 0.56 Kg/ha

SMILES | % Inhibition GFT [3, 9] | % Inhibition GFT [3, 10] | % Inhibition GFT [3, 11] | % Inhibition GFT [3, 12] | % Inhibition GFT [3, 13] | % Inhibition GFT [3, 14] | % Inhibition GFT [3, 15] | % Inhibition GFT [3, 16] | % Inhibition VL [4, 9] | % Inhibition VL [4, 10] | % Inhibition VL [4, 11] | % Inhibition VL [4, 12] | % Inhibition VL [4, 13] | % Inhibition VL [4, 14] | % Inhibition VL [4, 15] | % Inhibition VL [4, 16] | % Inhibition Corn (corn; [9]) | % Inhibition Corn (corn; [10]) | % Inhibition Corn (corn; [11]) | % Inhibition Corn (corn; [12]) | also measured
CC1(C)OC(c2ccco2)CN1C(=O)C(Cl)Cl (stereo not drawn) [Antidote No. 15, Oxazolidine, 3-(dichloroacetyl)-5-(2-furanyl)-2,2-dimethyl] |  |  |  |  |  |  |  |  |  |  |  |  |  |  |  |  |  |  |  |  | safening of corn, assessment in words (corn; Herbicide No. 1, Tables 23A and 23B): greatly safened corn against the herbicide at all test rates
COC(=O)c1c(Cl)nn(C)c1S(=O)(=O)NC(=O)Nc1nc(OC)cc(OC)n1 [No.1] |  |  |  |  |  |  |  |  |  |  |  |  |  |  |  |  |  |  |  |  | % Injury BYG [1, 5]: 20%; % Injury BYG [1, 6]: 10%; % Injury BYG [1, 7]: 50%; % Injury BYG [1, 8]: 10%; % Injury VL [2, 5]: 60%; % Injury VL [2, 6]: 50%; % Injury VL [2, 7]: 70%; % Injury VL [2, 8]: 65%
CC1COc2ccccc2N1C(=O)C(Cl)Cl (stereo not drawn) [compound 17] | 25% | 25% | 60% | 70% | 15% | 40% | 55% | 65% | 95% | 85% | 95% | 95% | 90% | 90% | 90% | 95% | 0% | 0% | 15% | 25% | % Inhibition Corn (corn; [13]): 0%; % Inhibition Corn (corn; [14]): 10%; % Inhibition Corn (corn; [15]): 20%; % Inhibition Corn (corn; [16]): 30%
O=C(O)COC(c1ccccc1)c1ccccc1 [compound 18] | 15% | 30% | 65% | 70% | 15% | 20% | 60% | 60% | 90% | 95% | 95% | 95% | 90% | 95% | 90% | 95% | 0% | 0% | 10% | 10% | % Inhibition Corn (corn; [13]): 5%; % Inhibition Corn (corn; [14]): 5%; % Inhibition Corn (corn; [15]): 20%; % Inhibition Corn (corn; [16]): 30%
O=C(O)COC(c1ccccc1)c1ccccc1 [compound 19] | 15% | 30% | 50% | 70% | 25% | 40% | 60% | 65% | 90% | 85% | 95% | 95% | 85% | 85% | 90% | 90% | 0% | 0% | 5% | 15% | % Inhibition Corn (corn; [13]): 0%; % Inhibition Corn (corn; [14]): 5%; % Inhibition Corn (corn; [15]): 15%; % Inhibition Corn (corn; [16]): 40%
COC(=O)COC(c1ccccc1)c1ccccc1 [compound 20] | 15% | 35% | 40% | 65% | 15% | 20% | 60% | 75% | 90% | 90% | 85% | 90% | 90% | 90% | 90% | 95% | 0% | 0% | 0% | 15% | % Inhibition Corn (corn; [13]): 0%; % Inhibition Corn (corn; [14]): 5%; % Inhibition Corn (corn; [15]): 20%; % Inhibition Corn (corn; [16]): 40%
CCSC(=O)COC(c1ccccc1)c1ccccc1 [compound 21] | 10% | 20% | 35% | 70% | 20% | 45% | 50% | 75% | 85% | 85% | 95% | 95% | 85% | 90% | 90% | 95% | 0% | 0% | 5% | 30% | % Inhibition Corn (corn; [13]): 0%; % Inhibition Corn (corn; [14]): 5%; % Inhibition Corn (corn; [15]): 20%; % Inhibition Corn (corn; [16]): 35%
